# Reference: the NIST ThermoML archive (doi:10.1016/j.fluid.2015.12.053)
# ± gives the expanded uncertainty stated by the source.
# Tests used:
# [1] = Liquid, Ebulliometric method (Recirculating still)
# [2] = wn = mass fraction of the nth substance listed; conditions: 100 kPa, Liquid, Pycnometric method
smiles,measurement,setting,value
Cl.Nc1ccccc1 [aniline hydrochloride],vapor or sublimation pressure,[1]; 475.15 K,23.25 ± 0.18 kPa
same,vapor or sublimation pressure,[1]; 480.15 K,27.25 ± 0.2 kPa
same,vapor or sublimation pressure,[1]; 484.15 K,31.25 ± 0.2 kPa
same,vapor or sublimation pressure,[1]; 488.15 K,34.25 ± 0.25 kPa
same,vapor or sublimation pressure,[1]; 493.15 K,41.25 ± 0.61 kPa
same,vapor or sublimation pressure,[1]; 494.15 K,44.25 ± 0.42 kPa
same,vapor or sublimation pressure,[1]; 495.15 K,45.25 ± 0.25 kPa
same,vapor or sublimation pressure,[1]; 496.15 K,46.25 ± 0.31 kPa
same,vapor or sublimation pressure,[1]; 498.15 K,49.25 ± 0.37 kPa
same,vapor or sublimation pressure,[1]; 499.15 K,51.25 ± 0.39 kPa
same,vapor or sublimation pressure,[1]; 500.15 K,52.75 ± 0.39 kPa
same,vapor or sublimation pressure,[1]; 501.15 K,54.75 ± 0.39 kPa
same,vapor or sublimation pressure,[1]; 502.15 K,56.25 ± 0.46 kPa
same,vapor or sublimation pressure,[1]; 503.15 K,59 ± 0.43 kPa
same,vapor or sublimation pressure,[1]; 505.15 K,62.25 ± 0.46 kPa
same,vapor or sublimation pressure,[1]; 509.15 K,71.25 ± 0.53 kPa
same,vapor or sublimation pressure,[1]; 512.15 K,79.25 ± 0.6 kPa
same,vapor or sublimation pressure,[1]; 513.65 K,83.75 ± 0.66 kPa
same,vapor or sublimation pressure,[1]; 516.15 K,91.25 ± 0.73 kPa
same,vapor or sublimation pressure,[1]; 517.65 K,97.25 ± 0.75 kPa
same,vapor or sublimation pressure,[1]; 519.15 K,101.5 ± 0.81 kPa
same,vapor or sublimation pressure,[1]; 519.65 K,105.25 ± 1.1 kPa
same,vapor or sublimation pressure,[1]; 521.15 K,112.25 ± 1.1 kPa
same,vapor or sublimation pressure,[1]; 522.15 K,118.25 ± 1.3 kPa
same,vapor or sublimation pressure,[1]; 524.15 K,131.25 ± 1.3 kPa
same,vapor or sublimation pressure,[1]; 525.15 K,136.25 ± 1.1 kPa
same,vapor or sublimation pressure,[1]; 526.15 K,141.25 ± 1.3 kPa
same,vapor or sublimation pressure,[1]; 527.15 K,148.25 ± 1.5 kPa
Cl.Nc1ccccc1 [aniline hydrochloride] + O,mass density,"[2]; 298.15 K, w1 = 0.01",1000 ± 1 kg/m3
same,mass density,"[2]; 298.15 K, w1 = 0.05",1009.2 ± 0.3 kg/m3
same,mass density,"[2]; 298.15 K, w1 = 0.1",1018.9 ± 0.3 kg/m3
same,mass density,"[2]; 298.15 K, w1 = 0.15",1028.7 ± 0.3 kg/m3
same,mass density,"[2]; 298.15 K, w1 = 0.2",1038.5 ± 0.3 kg/m3
same,mass density,"[2]; 298.15 K, w1 = 0.3",1057.8 ± 0.3 kg/m3
same,mass density,"[2]; 298.15 K, w1 = 0.35",1068 ± 1 kg/m3
same,mass density,"[2]; 298.15 K, w1 = 0.4",1078.3 ± 0.3 kg/m3
same,mass density,"[2]; 303.15 K, w1 = 0.01",997.4 ± 0.3 kg/m3
same,mass density,"[2]; 303.15 K, w1 = 0.05",1007.3 ± 0.3 kg/m3
same,mass density,"[2]; 303.15 K, w1 = 0.1",1016.3 ± 0.3 kg/m3
same,mass density,"[2]; 303.15 K, w1 = 0.15",1026.6 ± 0.3 kg/m3
same,mass density,"[2]; 303.15 K, w1 = 0.2",1036.8 ± 0.3 kg/m3
same,mass density,"[2]; 303.15 K, w1 = 0.3",1056 ± 1 kg/m3
same,mass density,"[2]; 303.15 K, w1 = 0.35",1065.8 ± 0.3 kg/m3
same,mass density,"[2]; 303.15 K, w1 = 0.4",1075.6 ± 0.3 kg/m3
same,mass density,"[2]; 313.15 K, w1 = 0.01",994.3 ± 0.3 kg/m3
same,mass density,"[2]; 313.15 K, w1 = 0.05",1002.3 ± 0.3 kg/m3
same,mass density,"[2]; 313.15 K, w1 = 0.1",1012.3 ± 0.3 kg/m3
same,mass density,"[2]; 313.15 K, w1 = 0.15",1021.7 ± 0.3 kg/m3
same,mass density,"[2]; 313.15 K, w1 = 0.2",1031 ± 1 kg/m3
same,mass density,"[2]; 313.15 K, w1 = 0.3",1049.6 ± 0.3 kg/m3
same,mass density,"[2]; 313.15 K, w1 = 0.35",1059.7 ± 0.4 kg/m3
same,mass density,"[2]; 313.15 K, w1 = 0.4",1069.7 ± 0.4 kg/m3
same,mass density,"[2]; 323.15 K, w1 = 0.01",989.5 ± 0.3 kg/m3
same,mass density,"[2]; 323.15 K, w1 = 0.05",995.9 ± 0.3 kg/m3
same,mass density,"[2]; 323.15 K, w1 = 0.1",1007.3 ± 0.3 kg/m3
same,mass density,"[2]; 323.15 K, w1 = 0.15",1016.5 ± 0.3 kg/m3
same,mass density,"[2]; 323.15 K, w1 = 0.2",1025.8 ± 0.3 kg/m3
same,mass density,"[2]; 323.15 K, w1 = 0.3",1045.3 ± 0.4 kg/m3
same,mass density,"[2]; 323.15 K, w1 = 0.35",1055.1 ± 0.4 kg/m3
same,mass density,"[2]; 323.15 K, w1 = 0.4",1065 ± 1 kg/m3
same,mass density,"[2]; 323.15 K, w1 = 0.6",1107.5 ± 0.4 kg/m3
same,mass density,"[2]; 333.15 K, w1 = 0.01",985.6 ± 0.4 kg/m3
same,mass density,"[2]; 333.15 K, w1 = 0.05",991.2 ± 0.4 kg/m3
same,mass density,"[2]; 333.15 K, w1 = 0.1",1003.8 ± 0.4 kg/m3
same,mass density,"[2]; 333.15 K, w1 = 0.15",1012.8 ± 0.4 kg/m3
same,mass density,"[2]; 333.15 K, w1 = 0.2",1021.8 ± 0.4 kg/m3
same,mass density,"[2]; 333.15 K, w1 = 0.3",1040.6 ± 0.4 kg/m3
same,mass density,"[2]; 333.15 K, w1 = 0.35",1050.1 ± 0.4 kg/m3
same,mass density,"[2]; 333.15 K, w1 = 0.4",1059.6 ± 0.4 kg/m3
same,mass density,"[2]; 333.15 K, w1 = 0.6",1103.3 ± 0.4 kg/m3
same,mass density,"[2]; 343.15 K, w1 = 0.01",979.1 ± 0.4 kg/m3
same,mass density,"[2]; 343.15 K, w1 = 0.05",985.1 ± 0.4 kg/m3
same,mass density,"[2]; 343.15 K, w1 = 0.1",997.1 ± 0.4 kg/m3
same,mass density,"[2]; 343.15 K, w1 = 0.15",1005.9 ± 0.4 kg/m3
same,mass density,"[2]; 343.15 K, w1 = 0.2",1014.7 ± 0.4 kg/m3
same,mass density,"[2]; 343.15 K, w1 = 0.3",1033.5 ± 0.4 kg/m3
same,mass density,"[2]; 343.15 K, w1 = 0.35",1043 ± 1 kg/m3
same,mass density,"[2]; 343.15 K, w1 = 0.4",1052.5 ± 0.4 kg/m3
same,mass density,"[2]; 343.15 K, w1 = 0.6",1097.1 ± 0.5 kg/m3
same,mass density,"[2]; 353.15 K, w1 = 0.01",975.1 ± 0.4 kg/m3
same,mass density,"[2]; 353.15 K, w1 = 0.05",980.7 ± 0.4 kg/m3
same,mass density,"[2]; 353.15 K, w1 = 0.1",990.2 ± 0.5 kg/m3
same,mass density,"[2]; 353.15 K, w1 = 0.15",998.8 ± 0.5 kg/m3
same,mass density,"[2]; 353.15 K, w1 = 0.2",1007.4 ± 0.5 kg/m3
same,mass density,"[2]; 353.15 K, w1 = 0.3",1026.7 ± 0.5 kg/m3
same,mass density,"[2]; 353.15 K, w1 = 0.35",1036.3 ± 0.5 kg/m3
same,mass density,"[2]; 353.15 K, w1 = 0.4",1045.9 ± 0.5 kg/m3
same,mass density,"[2]; 353.15 K, w1 = 0.6",1087 ± 1 kg/m3
same,mass density,"[2]; 356.65 K, w1 = 0.01",965.4 ± 0.9 kg/m3
same,mass density,"[2]; 356.65 K, w1 = 0.05",973.4 ± 0.8 kg/m3
same,mass density,"[2]; 356.65 K, w1 = 0.1",978.7 ± 0.9 kg/m3
same,mass density,"[2]; 356.65 K, w1 = 0.15",987.6 ± 1 kg/m3
same,mass density,"[2]; 356.65 K, w1 = 0.2",996.6 ± 0.9 kg/m3
same,mass density,"[2]; 356.65 K, w1 = 0.3",1016 ± 1 kg/m3
same,mass density,"[2]; 356.65 K, w1 = 0.35",1026.1 ± 0.9 kg/m3
same,mass density,"[2]; 356.65 K, w1 = 0.4",1036.3 ± 0.9 kg/m3
same,mass density,"[2]; 356.65 K, w1 = 0.6",1078 ± 1 kg/m3
O [water] + Cl.Nc1ccccc1,mass density,"[2]; 298.15 K, w2 = 0",997.7 ± 0.3 kg/m3
same,mass density,"[2]; 303.15 K, w2 = 0",996 ± 1 kg/m3
same,mass density,"[2]; 313.15 K, w2 = 0",992 ± 1 kg/m3
same,mass density,"[2]; 323.15 K, w2 = 0",986.6 ± 0.3 kg/m3
same,mass density,"[2]; 333.15 K, w2 = 0",983.1 ± 0.4 kg/m3
same,mass density,"[2]; 343.15 K, w2 = 0",977.3 ± 0.4 kg/m3
same,mass density,"[2]; 353.15 K, w2 = 0",971.8 ± 0.4 kg/m3
same,mass density,"[2]; 356.65 K, w2 = 0",963.9 ± 0.7 kg/m3
